# Where “and” joins values, the source holds several entries; their conditions need not be identical. Identical values can stand only once. Like-named read-outs stand apart in the source and are kept apart here.
# Legend:
# [1] = molecular target: human JMJD5 (Homo sapiens, UniProt Q8N371); experiment: SPE-MS JMJD5 inhibition assay (hydroxylation of RPS6 128–148 peptide); assay type: biochemical
# Excerpt: Synthetic peptides with sequences based on reported human 2OG oxygenase substrates were used in SPE-MS inhibition assays: RPS6, residues 128–148, for JMJD5;[42] HIF-α CODD, residues 558–574, for PHD2;[70] HIF-α CAD, residues 788–822, for FIH;[70] H3_1-15K9me3, histone 3 (H3), residues 1–15 with K9 of H3-bearing three methyl groups at the N^ε-position, K4 of H3 substituted by an alanine residue, and K14 of H3 by an isoleucine residue,[73] for KDM4E; and RPL27A, residues 31–49, for RIOX2 (Mina53).[44] All peptides were prepared as C-terminal amides by GL Biochem (Shanghai) Ltd. A synthetic thioether-linked cyclic peptide, hFX-CP101–119,[48] which was designed based on the reported cellular AspH substrate human coagulation factor X (hFX, residues 101–119; C101 was substituted for a D-alanine residue and C112 for a serine residue),[79] was used as AspH substrate; it was prepared with a C-terminal amide according to literature protocols.[80]
# Cosubstrate/cofactor stock solutions [L-ascorbic acid/LAA: 50 mM in MQ-grade water; 2-oxoglutarate/2OG: 10 mM in MQ-grade water; ammonium iron(II) sulfate hexahydrate/FAS/(NH4)2Fe(SO4)2·6H2O: 400 mM in 20 mM HCl diluted to 1 mM in MQ-grade water] were freshly prepared from commercial solids (Sigma-Aldrich) on the day the assays were performed. The JMJD5,[42] PHD2,[70] FIH,[70] KDM4E,[72],[73] RIOX2,[44] and AspH[45] SPE-MS inhibition assays were performed as described in the cited literature, using isolated recombinant human enzymes (His6-thioredoxin-JMJD5,[42] His6-PHD2_181–426,[70] His6-FIH,[70] His6-KDM4E,[72],[73] His6-RIOX2_26–465,[87],[88] and His6-AspH315–758[48],[80]) and synthetic peptide substrates (RPS6_128–148 for JMJD5;[42] HIF-α CODD558–574 for PHD2;[70] HIF-α CAD788–822 for FIH;[70] H3_1–15K9me3 for KDM4E;[73] RPL27A31–49 for RIOX2;[44],[71] and hFX-CP101–119 for AspH;[45],[48] see above). For JMJD5, PHD2, FIH, RIOX2, and AspH, substrate hydroxylation was monitored (+16 Da mass shift), while for the KDM4E substrate, demethylation was monitored (−14 Da mass shift) by SPE-MS.
# [2] = molecular target: T1, KDM4E (Homo sapiens, UniProt B2RXH2); settings: Supporting Table S1; reported FDH-coupled spectrophotometric assay; ref SI 17; cited from earlier work
# T1 construct: made in house; host or cells: Escherichia coli
# T1 sequence (B2RXH2 1-506): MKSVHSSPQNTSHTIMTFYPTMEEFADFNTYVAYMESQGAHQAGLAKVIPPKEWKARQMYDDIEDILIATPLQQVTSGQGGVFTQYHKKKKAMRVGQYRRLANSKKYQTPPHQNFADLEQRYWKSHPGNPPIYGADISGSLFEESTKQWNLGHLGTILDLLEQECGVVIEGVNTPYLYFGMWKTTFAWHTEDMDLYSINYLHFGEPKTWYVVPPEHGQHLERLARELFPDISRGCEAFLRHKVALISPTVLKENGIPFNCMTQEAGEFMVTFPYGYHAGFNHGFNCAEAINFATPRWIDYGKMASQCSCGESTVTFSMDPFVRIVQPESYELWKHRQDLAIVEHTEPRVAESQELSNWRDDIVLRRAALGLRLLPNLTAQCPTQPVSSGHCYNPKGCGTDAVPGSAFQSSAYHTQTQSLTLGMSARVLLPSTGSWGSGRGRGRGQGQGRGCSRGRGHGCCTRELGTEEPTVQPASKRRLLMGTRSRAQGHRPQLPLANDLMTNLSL
# [3] = molecular target: T1, KDM4E; experiment: SPE-MS KDM4E inhibition assay (demethylation of H3 1–15 K9me3); assay type: biochemical; settings: Table 2, 10.0 μM H3 1–15 K9me3, n = 2, mean ± SD
# Protocol: (§1) H3_1-15K9me3, histone 3 (H3), residues 1–15 with K9 of H3-bearing three methyl groups at the N^ε-position, K4 of H3 substituted by an alanine residue, and K14 of H3 by an isoleucine residue,[73] for KDM4E; and RPL27A, residues 31–49, for RIOX2 (Mina53).[44]
# (§2) Cosubstrate/cofactor stock solutions [L-ascorbic acid/LAA: 50 mM in MQ-grade water; 2-oxoglutarate/2OG: 10 mM in MQ-grade water; ammonium iron(II) sulfate hexahydrate/FAS/(NH4)2Fe(SO4)2·6H2O: 400 mM in 20 mM HCl diluted to 1 mM in MQ-grade water] were freshly prepared from commercial solids (Sigma-Aldrich) on the day the assays were performed. The JMJD5,[42] PHD2,[70] FIH,[70] KDM4E,[72],[73] RIOX2,[44] and AspH[45] […] For JMJD5, PHD2, FIH, RIOX2, and AspH, substrate hydroxylation was monitored (+16 Da mass shift), while for the KDM4E substrate, demethylation was monitored (−14 Da mass shift) by SPE-MS.
# [4] = molecular target: T2, AspH (Homo sapiens, UniProt Q12797); experiment: SPE-MS AspH inhibition assay (hFX-CP101–119 hydroxylation); assay type: biochemical; settings: Table 2; His6-AspH315–758 0.05 μM, 1.0 μM hFX-CP101–119; n = 2, mean ± SD
# T2 construct: N-terminally His6-tagged AspH315–758; made in house; host or cells: Escherichia coli
# T2 sequence (Q12797 315-758): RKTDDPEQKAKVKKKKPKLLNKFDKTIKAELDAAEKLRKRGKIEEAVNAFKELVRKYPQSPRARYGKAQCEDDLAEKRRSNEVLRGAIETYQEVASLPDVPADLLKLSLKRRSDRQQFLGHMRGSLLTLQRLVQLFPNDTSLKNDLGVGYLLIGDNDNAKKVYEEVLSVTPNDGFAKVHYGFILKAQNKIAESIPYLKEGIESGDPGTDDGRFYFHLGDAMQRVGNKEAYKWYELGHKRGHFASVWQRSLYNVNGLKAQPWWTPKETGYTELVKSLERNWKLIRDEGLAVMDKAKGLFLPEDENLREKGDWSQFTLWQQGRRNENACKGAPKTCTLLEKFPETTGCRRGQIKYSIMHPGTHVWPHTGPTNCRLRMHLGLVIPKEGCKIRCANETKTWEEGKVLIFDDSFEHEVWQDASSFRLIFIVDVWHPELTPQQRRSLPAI
# Protocol: as §1, §2
# [5] = molecular target: T3, PHD2 (Homo sapiens, UniProt Q9GZT9); experiment: SPE-MS PHD2 inhibition assay (HIF-1α CODD hydroxylation); assay type: biochemical; settings: Table 2; PHD2 181–426 […], 5.0 μM HIF-1α CODD; n = 2, mean ± SD
# T3 construct: His6-PHD2_181–426; made in house; host or cells: Escherichia coli
# Protocol: as §1, §2
# [6] = molecular target: T4, RIOX2 (Homo sapiens, UniProt Q8IUF8); experiment: SPE-MS RIOX2 inhibition assay (RPL27A31–49 hydroxylation); assay type: biochemical; settings: Table 2; His6-RIOX2 26–465 […], 5.0 μM RPL27A31–49; n = 2, mean ± SD
# T4 construct: N-terminally His6-tagged RIOX2_26–465; made in house; host or cells: Escherichia coli
# Protocol: Cosubstrate/cofactor stock solutions [L-ascorbic acid/LAA: 50 mM in MQ-grade water; 2-oxoglutarate/2OG: 10 mM in MQ-grade water; ammonium iron(II) sulfate hexahydrate/FAS/(NH4)2Fe(SO4)2·6H2O: 400 mM in 20 mM HCl diluted to 1 mM in MQ-grade water] were freshly prepared from commercial solids (Sigma-Aldrich) on the day the assays were performed. […] For JMJD5, PHD2, FIH, RIOX2, and AspH, substrate hydroxylation was monitored (+16 Da mass shift), while for the KDM4E substrate, demethylation was monitored (−14 Da mass shift) by SPE-MS.
# [7] = Supporting Table S1, JMJD5 […], 2OG 2.0 μM, RPS6 128-148 2.0 μM, pH 7.5, 20 °C, n = 3, mean ± SD, read-out: IC50 JMJD5
# [8] = supplementary CSV, read-out: IC50 JMJD5
# [9] = Table 1, JMJD5 […], 2OG 2.0 μM, Fe(II) 2.0 μM, LAA 100 μM, RPS6 128–148 2.0 μM, pH 7.5, 20 °C, n = 3, mean ± SD, read-out: IC50 JMJD5
# [10] = isolated recombinant JMJD5, SPE-MS, approximate values, read-out: IC50 for JMJD5 inhibition
# [11] = isolated recombinant JMJD5, SPE-MS
# [12] = Table 2, JMJD5 […], 2OG 2.0 μM, Fe(II) 2.0 μM, LAA 100 μM, RPS6 128–148 2.0 μM, n = 3, mean ± SD, read-out: IC50 JMJD5
# T3 sequence (Q9GZT9 181-426): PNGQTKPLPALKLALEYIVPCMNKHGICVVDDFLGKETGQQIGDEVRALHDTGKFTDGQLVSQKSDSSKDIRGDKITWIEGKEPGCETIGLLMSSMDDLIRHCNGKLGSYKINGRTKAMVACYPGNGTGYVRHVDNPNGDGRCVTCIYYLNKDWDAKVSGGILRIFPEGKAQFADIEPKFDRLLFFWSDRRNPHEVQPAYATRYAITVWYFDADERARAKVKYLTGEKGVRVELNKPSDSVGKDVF
# Sequence of human JMJD5 (Q8N371 whole entry, the tested form may be a part): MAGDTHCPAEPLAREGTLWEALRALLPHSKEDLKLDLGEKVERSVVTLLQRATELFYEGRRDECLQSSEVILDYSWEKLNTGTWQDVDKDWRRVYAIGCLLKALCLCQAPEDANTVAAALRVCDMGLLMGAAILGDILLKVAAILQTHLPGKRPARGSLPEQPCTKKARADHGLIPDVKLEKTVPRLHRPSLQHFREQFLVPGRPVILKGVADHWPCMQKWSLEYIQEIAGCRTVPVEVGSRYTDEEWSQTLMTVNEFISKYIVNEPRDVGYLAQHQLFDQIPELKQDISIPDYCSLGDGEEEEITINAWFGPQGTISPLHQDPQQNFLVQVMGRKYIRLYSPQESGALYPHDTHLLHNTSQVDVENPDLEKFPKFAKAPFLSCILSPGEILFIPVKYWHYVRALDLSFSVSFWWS
# T4 sequence (Q8IUF8 26-465): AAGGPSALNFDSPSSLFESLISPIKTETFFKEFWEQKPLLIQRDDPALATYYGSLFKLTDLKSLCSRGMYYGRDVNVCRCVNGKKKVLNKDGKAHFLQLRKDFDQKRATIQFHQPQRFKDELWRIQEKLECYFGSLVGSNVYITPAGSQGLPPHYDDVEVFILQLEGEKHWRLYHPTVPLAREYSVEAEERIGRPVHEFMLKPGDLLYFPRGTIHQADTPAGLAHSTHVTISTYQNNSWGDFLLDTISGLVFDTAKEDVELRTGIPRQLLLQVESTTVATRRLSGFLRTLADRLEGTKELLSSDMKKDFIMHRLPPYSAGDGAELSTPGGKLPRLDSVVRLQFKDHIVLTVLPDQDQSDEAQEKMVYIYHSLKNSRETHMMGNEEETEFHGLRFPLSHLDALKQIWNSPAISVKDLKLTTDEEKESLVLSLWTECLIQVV
SMILES,"IC50 [1, 7] [µM]","IC50 [1, 8] [µM]","IC50 [1, 9] [µM]",other results
O=C(O)c1ccnc(C(=O)O)c1Nc1ccccc1F [Compound 25],46.9 ± 4.6,46.9 ± 4.6,,
O=C(O)c1ccnc(C(=O)O)c1Nc1ccccc1[N+](=O)[O-] [Compound 2],,17.9 ± 2.6,17.9 ± 2.6,"IC50 [1, 10]: ~17.9 µM and ~16.8 µM"
"O=C(O)c1ccnc(C(=O)O)c1F [Compound 13, 3-fluoro-2,4-PDCA]",,27.2 ± 2.9,27.2 ± 2.9,"JMJD5 inhibition (in words) [1, 11]: did not efficiently inhibit JMJD5"
Cc1ccccc1Nc1c(C(=O)O)ccnc1C(=O)O [Compound 26],> 50,> 50,,IC50 [2]: 41 µM
O=C(O)c1ccncc1NCCc1ccc(Cl)cc1 [Compound 32],> 50,> 50,,
O=C(O)c1cc(C(=O)O)c(NCc2ccc(C(F)(F)F)cc2)cn1 [Compound 20g],,,,IC50 [3]: 6.2 ± 1.1 µM; IC50 [4]: 1200 ± 100 nM; IC50 [5]: > 50 µM
"O=C(O)c1cc(C(=O)O)c(F)cn1 [Compound 15, 5-fluoro-2,4-PDCA]",,4.5 ± 0.9,4.5 ± 0.9,"JMJD5 inhibition (in words) [1, 11]: inhibits; IC50 [1, 10]: ~4.5 µM"
"COC(=O)c1ccnc(C(=O)OC)c1 [dimethyl 2,4-PDCA, reference compound]",> 50,,,"JMJD5 inhibition (in words) [1, 11]: does not inhibit isolated recombinant JMJD5; JMJD5 inhibition (in words) ([1]; isolated recombinant JMJD5, SPE-MS, listed as dimethyl ester derivative of 1): does not inhibit isolated recombinant JMJD5 efficiently"
O=C(O)c1ccncc1NCc1ccccc1 [Compound 4],,> 50,> 50,"JMJD5 inhibition (in words) [1, 11]: does not inhibit JMJD5"
O=C(O)c1ccccc1Nc1c(C(=O)O)ccnc1C(=O)O [Compound 24],> 50,> 50,,IC50 [2]: 166 µM
O=C(O)c1ccnc(C(=O)O)c1NCc1ccccc1 [Compound 3],,9.5 ± 2.2,9.5 ± 2.2,
CC(Nc1c(C(=O)O)ccnc1C(=O)O)c1ccccc1 (centres unmarked) [Compound 8],,3.1 ± 1.5,3.1 ± 1.5,"JMJD5 inhibition less efficient than 2,4-PDCA (1) ([1]; compared with 1): ~6 fold and ~ 5 fold; JMJD5 inhibition more efficient than 3 ([1]; compared with 3): ~3 fold; IC50 [1, 10]: ~3.1 µM"
O=C(O)c1ccnc(C(=O)O)c1NCCCCc1ccccc1 [Compound 12],,20.8 ± 0.2,20.8 ± 0.2,
O=C(O)c1ccnc(C(=O)O)c1NCCc1ccccc1 [Compound 10],,19.6 ± 3,19.6 ± 3,
CC(Nc1cnc(C(=O)O)cc1C(=O)O)c1ccccc1 (centres unmarked) [Compound 20e],,,,"IC50 [3]: 22.7 ± 0.4 µM; IC50 [1, 12]: 17.5 ± 2.5 µM; IC50 [1, 10]: ~17.5 µM; IC50 [4]: 5900 ± 1900 nM; IC50 [5]: > 50 µM"
CC(Nc1cnccc1C(=O)O)c1ccccc1 (centres unmarked) [Compound 30],> 50,> 50,,
COc1ccccc1Nc1c(C(=O)O)ccnc1C(=O)O [Compound 27],29.6 ± 4.3,29.6 ± 4.3,,IC50 [2]: 19 µM
O=C(O)c1ccnc(C(=O)O)c1NCCc1ccc(Cl)cc1 [Compound 31],10.3 ± 3.1,10.3 ± 3.1,,
O=C(O)c1ccnc(C(=O)O)c1Nc1ccccc1 [Compound 21],> 50,> 50,,IC50 [2]: 19 µM
O=C(O)c1ccnc(C(=O)O)c1NCC1CCCCC1 [Compound 5],,25.3 ± 0.5,25.3 ± 0.5,"IC50 [1, 10]: ~25.3 µM"
O=C(O)c1ccnc(C(=O)O)c1NCCCc1ccccc1 [Compound 11],,19.7 ± 3,19.7 ± 3,
COc1ccc(CNc2c(C(=O)O)ccnc2C(=O)O)cc1 [Compound 6],,5.8 ± 2.9,5.8 ± 2.9,
"O=C(O)c1cc(C(=O)O)c(NCc2ccccc2)cn1 [Compound 20a, 5-(benzylamino)pyridine-2,4-dicarboxylic acid]",,,,IC50 [3]: 3.2 ± 1.6 µM; IC50 [4]: 500 ± 200 nM; IC50 [5]: > 50 µM
Nc1ccccc1Nc1c(C(=O)O)ccnc1C(=O)O [Compound 29],39.6,39.6 ± 11.2,,
O=C(O)c1ccnc(C(=O)O)c1NCc1ccc(C(F)(F)F)cc1 [Compound 7],,10.4 ± 4.4,10.4 ± 4.4,
CCC(Nc1c(C(=O)O)ccnc1C(=O)O)c1ccccc1 (centres unmarked) [Compound 9],,7.5 ± 2,7.5 ± 2,"IC50 [1, 10]: ~7.5 µM"
O=C(O)c1cc(C(=O)O)c(NCC2CCCCC2)cn1 [Compound 20f],,,,IC50 [3]: 3.2 ± 0.3 µM; IC50 [4]: 2600 ± 600 nM; IC50 [6]: 34 ± 8.5 µM; IC50 [5]: > 50 µM
"O=C(O)c1cc(C(=O)O)c(NCCCCc2ccccc2)cn1 [Compound 20d, 5-((4-phenylbutyl)amino)pyridine-2,4-dicarboxylic acid]",,,,"IC50 [3]: 3.6 ± 0.7 µM; IC50 [1, 12]: 0.4 ± 0.2 µM; IC50 [4]: 1900 ± 200 nM; IC50 [5]: 20.4 ± 0.8 µM"
CSc1ccccc1Nc1c(C(=O)O)ccnc1C(=O)O [Compound 28],41.5 ± 2.2,41.5 ± 2.2,,IC50 [2]: 48 µM

# From article PMC10424186 (Journal of Medicinal Chemistry, 2023)
